ChEMBL document CHEMBL5331074, “Design and synthesis of new adamantyl derivatives as promising antiproliferative agents” (Eur J Med Chem, 2023)

Key:
CCRF-CEM = test: Cytotoxicity against human CCRF-CEM cells assessed as cell growth inhibition; assay type: functional, cell-based
MOLT-4 = test: Cytotoxicity against human MOLT-4 cells assessed as cell growth inhibition; assay type: functional, cell-based
OVCAR-3 = test: Cytotoxicity against human OVCAR-3 cells assessed as cell growth inhibition; assay type: functional, cell-based
UO-31 = test: Cytotoxicity against human UO-31 cells assessed as cell growth inhibition; assay type: functional, cell-based
[1] = Selectivity index, ratio of IC50 for cytotoxicity against human hTERT-HME1 cells to IC50 for cytotoxicity against human MCF7 cells; assay type: toxicity, cell-based; settings: hTERT-HME1 cells and MCF7 cells, read-out: Ratio IC50
[2] = Selectivity index, ratio of IC50 for cytotoxicity against human F180 cells to IC50 for cytotoxicity against human UACC-62 cells
[3] = Selectivity index, ratio of IC50 for cytotoxicity against human F180 cells to IC50 for cytotoxicity against human SK-MEL-28 cells
K562 [4] = test: Induction of apoptosis in human K562 cells assessed as fold increase in caspase 3/7 activity at 0.58 uM (reference value: 1.03 +/- 0.02); assay type: functional
K562 [5] = test: Induction of apoptosis in human K562 cells assessed as fold increase in caspase 3/7 activity at 1.16 uM (reference value: 1.03 +/- 0.02); assay type: functional
K562 [6] = test: Induction of necrosis in human K562 cells assessed as LDH release at 0.58 uM (reference value: 0.20+/- 0.02%); assay type: functional
K562 [7] = test: Induction of necrosis in human K562 cells assessed as LDH release at 1.16 uM (reference value: 0.20+/- 0.02%); assay type: functional
Carbonic anhydrase 2 [8] = target: T1, Carbonic anhydrase 2 (Homo sapiens, UniProt P00918); test: Inhibition of Carbonic anhydrase 2 (unknown origin) at 100 uM using p-nitrophenyl acetate as substrate preincubated for 10 mins followed by substrate addition and measured after 30 mins by microplate reader method relative to control; settings: time 40.0 min
Carbonic anhydrase 12 [9] = target: T2, Carbonic anhydrase 12 (Homo sapiens, UniProt O43570); test: Inhibition of Carbonic anhydrase 12 (unknown origin) using p-nitrophenyl acetate as substrate preincubated for 10 mins followed by substrate addition and measured after 30 mins by microplate reader method
T2 sequence (O43570 whole entry): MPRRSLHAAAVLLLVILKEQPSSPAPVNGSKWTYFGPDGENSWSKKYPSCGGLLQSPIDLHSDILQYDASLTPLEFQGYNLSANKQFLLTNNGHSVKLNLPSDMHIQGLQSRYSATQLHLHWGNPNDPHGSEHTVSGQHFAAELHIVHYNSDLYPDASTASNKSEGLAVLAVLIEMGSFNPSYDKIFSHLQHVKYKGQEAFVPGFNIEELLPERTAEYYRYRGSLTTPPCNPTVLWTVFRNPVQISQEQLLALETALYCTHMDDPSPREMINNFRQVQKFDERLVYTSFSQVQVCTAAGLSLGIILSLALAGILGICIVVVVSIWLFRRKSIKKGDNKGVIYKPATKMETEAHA

[10] = test system: Panel NCI-60 (60 carcinoma cell lines); test: Cytotoxicity against human Panel NCI-60 (60 carcinoma cell lines) assessed as mean growth inhibition; assay type: functional
CAKI-1 = test: Cytotoxicity against human CAKI-1 cells assessed as cell growth inhibition; assay type: functional, cell-based
[11] = Selectivity index, ratio of IC50 for cytotoxicity against human hTERT-HME1 cells to IC50 for cytotoxicity against human Hs-578T cells
[12] = Selectivity index, ratio of IC50 for cytotoxicity against human F180 cells to IC50 for cytotoxicity against human SK-MEL-5 cells
[13] = Selectivity index, ratio of IC50 for cytotoxicity against human F180 cells to IC50 for cytotoxicity against human UACC-257 cells
K562 [14] = test: Induction of apoptosis in human K562 cells assessed as fold increase in caspase 3/7 activity at 0.32 uM (reference value: 1.03 +/- 0.02); assay type: functional
K562 [15] = test: Induction of apoptosis in human K562 cells assessed as fold increase in caspase 3/7 activity at 0.64 uM (reference value: 1.03 +/- 0.02); assay type: functional
K562 [16] = test: Induction of necrosis in human K562 cells assessed as LDH release at 0.32 uM (reference value: 0.20+/- 0.02%); assay type: functional
K562 [17] = test: Induction of necrosis in human K562 cells assessed as LDH release at 0.64 uM (reference value: 0.20+/- 0.02%); assay type: functional
Carbonic anhydrase 2 [18] = target: T1, Carbonic anhydrase 2; test: Inhibition of Carbonic anhydrase 2 (unknown origin) using p-nitrophenyl acetate as substrate preincubated for 10 mins followed by substrate addition and measured after 30 mins by microplate reader method
Carbonic anhydrase 12 [19] = target: T2, Carbonic anhydrase 12; test: Inhibition of Carbonic anhydrase 12 (unknown origin) at 100 uM using p-nitrophenyl acetate as substrate preincubated for 10 mins followed by substrate addition and measured after 30 mins by microplate reader method relative to control; settings: time 40.0 min

O=C(Nc1ccc(OS(=O)(=O)c2ccc(F)cc2)cc1)C12CC3CC(CC(C3)C1)C2
IC50 (CCRF-CEM): 3.73 µM
IC50 (MOLT-4): 5.05 µM
IC50 (OVCAR-3): 6.05 µM
IC50 (UO-31): 3.43 µM
selectivity ratio [1]: 84.7
Ratio IC50 [2]: 15.9
Ratio IC50 [3]: 1.7
fold change (FC) (K562 [4]): 1.89
fold change (FC) (K562 [5]): 2.72
Activity (K562 [6]): 1.8%
Activity (K562 [7]): 3.4%
inhibition (Carbonic anhydrase 2 [8]): 39.6%
IC50 (Carbonic anhydrase 12 [9]): 0.68 µM

O=C(Nc1ccc(OS(=O)(=O)c2ccccc2)cc1)C12CC3CC(CC(C3)C1)C2
inhibition (INH) [10]: 44.5%
IC50 (CAKI-1): 7.08 µM
IC50 (UO-31): 18.7 µM
Ratio IC50 [11]: 6.8
Ratio IC50 [12]: 3.12
Ratio IC50 [13]: 3.7
fold change (FC) (K562 [14]): 2.05
fold change (FC) (K562 [15]): 3.7
Activity (K562 [16]): 0.5%
Activity (K562 [17]): 2.3%
IC50 (Carbonic anhydrase 2 [18]): 0.88 µM
inhibition (Carbonic anhydrase 12 [19]): 18.1%
